# Counter-ions that a name gives are not always drawn. Like-named read-outs stand apart in the source and are kept apart here.
# Experiments:
# [1] = tested on: SKOV3 ovarian cancer cells; assay: Phototoxicity in SKOV3 cells after 660 nm light activation (AlamarBlue viability); type: cell-based, Human; settings: read-out: Phototoxicity μM (IC90)
# Method: (§1) Samples were stored at 4° C. protected from light.
# (§2) All data are shown as mean±SD (where appropriate).
# Media was then replaced with fresh media containing AlamarBlue, and % viable cells remaining assessed as above. Controls included cells treated with chlorin e4 analogues but not activated by laser light; cells without chlorin e4 analogue treatment but with laser light; and untreated controls. All measurements were made in quadruplicate.
# [2] = tested on: SKOV3 ovarian cancer cells; assay: Inherent cytotoxicity (dark toxicity) in SKOV3 cells (AlamarBlue viability); type: cell-based, Human
# Method: as §1, §2
# Untreated cells were used as a control. […] All measurements were made in quadruplicate.
# [3] = Homo sapiens, SK-OV-3, light or radiation study
# [4] = SKOV3, 24 hours incubation, no light activation
# [5] = SKOV3, 24 hours uptake, 660 nm, 50 mW/cm^2 for 5 mins (total 15 J/cm^2), * phototoxicity measured by LED
molecule,measurement,setting,value
"C=Cc1c(C)c2cc3nc(c(C)c4[nH]c(cc5nc(cc1[nH]2)C(C)=C5CC)c(C)c4C(=O)O)[C@@H](CCC(=O)O)[C@@H]3C [Chlorin e4 disodium, Chlorin e4 Disodium Salt, reference compound]",IC90,"[1]; SKOV3, 24 hours uptake, 660 nm, 50 mW/cm^2 for 5 mins (total 15 J/cm^2), values not marked * (laser)",21.3 µM
same,Dark toxicity μM (IC10),[2],40.23 µM
"CCC1=C(C)c2cc3[nH]c(cc4nc(c(C)c5[nH]c(cc1n2)c(C)c5C(=O)OC)[C@@H](CCC(=O)OC)[C@@H]4C)c(C)c3C(C)OCCCS[C@@H]1O[C@H](CO)[C@@H](O)[C@H](O)[C@H]1O (stereo partly drawn) [Compound 1, methyl (7S,8S)-18-ethyl-7-(3-methoxy-3-oxopropyl)-2,5,8,12,17-pentamethyl-13-(1-(3-(((2S,3R,4S,5S,6R)-3,4,5-trihydroxy-6-(hydroxymethyl)tetrahydro-2H-pyran-2-yl)thio)propoxy)ethyl)-7H,8H-porphyrin-3-carboxylate]",IC90,[1]; [3],0.06 µM
same,Dark toxicity μM (IC10),[2]; [4],8.64 µM
"CCC1=C(C)c2cc3[nH]c(cc4nc(c(C)c5[nH]c(cc1n2)c(C)c5C(=O)OC)[C@@H](CCC(=O)OC)[C@@H]4C)c(C)c3COC(=O)NCCCOCCC[P+](c1ccccc1)(c1ccccc1)c1ccccc1 [Compound 4, chlorin e4 dimethyl ester 13-(N-(3-(3-triphenylphosphoniumpropoxy)propyl)chloride)carbamate]",IC90,[1]; [3],0.0024 µM
same,Dark toxicity μM (IC10),[2]; [4],3.881 µM
"CCC1=C(C)c2cc3[nH]c(cc4nc(c(C)c5[nH]c(cc1n2)c(C)c5C(=O)OC)[C@@H](CCC(=O)OC)[C@@H]4C)c(C)c3COC(=O)NCCC[P+](c1ccccc1)(c1ccccc1)c1ccccc1 [Compound 5, chlorin e4 dimethyl ester 13-(N-(3-triphenylphosphoniumpropyl)bromide)carbamate]",IC90,[1]; [3],0.0029 µM
same,Dark toxicity μM (IC10),[2]; [4],3.046 µM
"CCC1=C(C)c2cc3[nH]c(cc4nc(c(C)c5[nH]c(cc1n2)c(C)c5C(=O)OC)[C@@H](CCC(=O)OC)[C@@H]4C)c(C)c3COC(=O)NCC[P+](c1ccccc1)(c1ccccc1)c1ccccc1 [Compound 6, chlorin e4 dimethyl ester 13-(N-(2-triphenylphosphoniumethyl)bromide)carbamate]",IC90,"[1]; Homo sapiens, SK-OV-3, light or radiation study, SKOV3, 24 hours uptake, 660 nm, 50 mW/cm^2 for 5 mins (total 15 J/cm^2), * phototoxicity measured by LED",0.0018 µM
same,Dark toxicity μM (IC10),[2]; [4],2.281 µM
"C=Cc1c(C)c2cc3nc(c(CC(=O)N[C@@H](CC(=O)O)C(=O)O)c4[nH]c(cc5nc(cc1[nH]2)C(C)=C5CC)c(C)c4C(=O)O)[C@@H](CCC(=O)O)[C@@H]3C [Talaporfin sodium, reference compound]",Dark toxicity μM (IC10),[2]; [4],11.10 µM
chlorin e4 13-hydroxymethyl dimethyl ester,IC90,[1]; [5],0.325 µM
same,Dark toxicity μM (IC10),[2],42.830 µM
chlorin e4 dimethyl ester 13-(6-(triphenylphosphonium bromide)hexyl)carbamate [Compound 3],IC90,[1]; [5],0.0041 µM
same,Dark toxicity μM (IC10),[2]; [4],0.838 µM
